# Measured values as given in ChEMBL document CHEMBL1201861, “Genomics of Drug Sensitity in Cancer screening data, Wellcome Trust Sanger Institute”.
# Counter-ions that a name gives are not always drawn.
# Key:
# BT-20 = assay: cells; format: functional, cell-based, Homo sapiens; conditions: Homo sapiens, BT-20;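 further: cell viability assay measuring suppression of growth in human BT-20 cells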
# Description: SANGER: Inhibition of human BT-20 cell growth in a cell viability assay.
# D-542MG = assay: cells; format: functional, cell-based, Homo sapiens; conditions: Homo sapiens, D-542MG
# Description: SANGER: Inhibition of human D-542MG cell growth in a cell viability assay.
# HTC-C3 = assay: cells; format: functional, cell-based, Homo sapiens; conditions: Homo sapiens, HTC-C3;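 further: inhibition of cell growth, read out with a cell viability assay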
# Description: SANGER: Inhibition of human HTC-C3 cell growth in a cell viability assay.
# RT-112 = assay: cells; format: functional, cell-based, Homo sapiens; conditions: Homo sapiens, RT-112
# Description: SANGER: Inhibition of human RT-112 cell growth in a cell viability assay.
# NCI-H719 = assay: cells; format: functional, cell-based, Homo sapiens; conditions: Homo sapiens, NCI-H719;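 further: growth inhibition of the cultured cell line, read out with a viability assay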
# Description: SANGER: Inhibition of human NCI-H719 cell growth in a cell viability assay.
# Daudi = assay: cells; format: functional, cell-based, Homo sapiens; conditions: Homo sapiens, Daudi;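 further: growth inhibition of Daudi cells, read out by a viability assay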
# Description: SANGER: Inhibition of human Daudi cell growth in a cell viability assay.
# NCI-H748 = assay: cells; format: functional, cell-based, Homo sapiens; conditions: Homo sapiens, NCI-H748;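 further: growth inhibition of NCI-H748 cells, measured by a cell viability assay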
# Description: SANGER: Inhibition of human NCI-H748 cell growth in a cell viability assay.
# SiHa = assay: cells; format: functional, cell-based, Homo sapiens; conditions: Homo sapiens, SiHa;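 further: Viability-based readout of growth inhibition in SiHa cells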
# Description: SANGER: Inhibition of human SiHa cell growth in a cell viability assay.
# NCI-H1437 = assay: cells; format: functional, cell-based, Homo sapiens; conditions: Homo sapiens, NCI-H1437;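 further: growth inhibition of human NCI-H1437 cells, read out by a cell viability assay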
# Description: SANGER: Inhibition of human NCI-H1437 cell growth in a cell viability assay.
# MC-CAR = assay: cells; format: functional, cell-based, Homo sapiens; conditions: Homo sapiens, MC-CAR;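 further: growth inhibition of the human MC-CAR cell line, read out by a cell viability assay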
# Description: SANGER: Inhibition of human MC-CAR cell growth in a cell viability assay.
# KP-4 = assay: cells; format: functional, cell-based, Homo sapiens; conditions: Homo sapiens, KP-4;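 further: human KP-4 cells, with growth inhibition read out through a cell viability assay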
# Description: SANGER: Inhibition of human KP-4 cell growth in a cell viability assay.
# FTC-133 = assay: cells; format: functional, cell-based, Homo sapiens; conditions: Homo sapiens, FTC-133
# NY = assay: cells; format: functional, cell-based, Homo sapiens; conditions: Homo sapiens, NY
# Description: SANGER: Inhibition of human NY cell growth in a cell viability assay.
# OE33 = assay: cells; format: functional, cell-based, Homo sapiens; conditions: Homo sapiens, OE33;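 further: growth inhibition of human OE33 cells, measured by a cell viability assay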
# Description: SANGER: Inhibition of human OE33 cell growth in a cell viability assay.
# TUR = assay: cells; format: functional, cell-based, Homo sapiens; conditions: Homo sapiens, TUR;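 further: growth inhibition of human TUR cells, read out with a cell viability assay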
# Description: SANGER: Inhibition of human TUR cell growth in a cell viability assay.
# CAL-120 = assay: cells; format: functional, cell-based, Homo sapiens; conditions: Homo sapiens, CAL-120;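 further: cell growth inhibition, read out as cell viability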
# Description: SANGER: Inhibition of human CAL-120 cell growth in a cell viability assay.
# VM-CUB-1 = assay: cells; format: functional, cell-based, Homo sapiens; conditions: Homo sapiens, VM-CUB-1;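 further: cell viability assay measuring growth inhibition of the human VM-CUB-1 cell line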
# Description: SANGER: Inhibition of human VM-CUB-1 cell growth in a cell viability assay.
# TCC-SUP = assay: cells; format: functional, cell-based, Homo sapiens; conditions: Homo sapiens, TCC-SUP;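 further: growth inhibition of TCC-SUP cells, read out with a cell viability assay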
# Description: SANGER: Inhibition of human TCCSUP cell growth in a cell viability assay.
# KU-19-19 = assay: cells; format: functional, cell-based, Homo sapiens; conditions: Homo sapiens, KU-19-19
# Description: SANGER: Inhibition of human KU-19-19 cell growth in a cell viability assay.
# KYSE-70 cell line = assay: cells; format: functional, cell-based, Homo sapiens; conditions: Homo sapiens, KYSE-70;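 further: cell viability assay read-out, with IC50 expressing suppression of KYSE-70 cell growth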
# Description: SANGER: Inhibition of human KYSE-70 cell growth in a cell viability assay.
# A 172 = assay: cells; format: functional, cell-based, Homo sapiens; conditions: Homo sapiens, A 172;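 further: growth inhibition of A172 cells, measured with a cell viability readout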
# Description: SANGER: Inhibition of human A172 cell growth in a cell viability assay.
# RO82-W-1 = assay: cells; format: functional, cell-based, Homo sapiens; conditions: Homo sapiens, RO82-W-1;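 further: growth inhibition of human RO82-W-1 cells, measured with a cell viability assay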
# Description: SANGER: Inhibition of human RO82-W-1 cell growth in a cell viability assay.
# SBC-5 = assay: cells; format: functional, cell-based, Homo sapiens; conditions: Homo sapiens, SBC-5;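 further: cell viability assay read-out, IC50 is the concentration that inhibits growth of the cells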
# Description: SANGER: Inhibition of human SBC-5 cell growth in a cell viability assay.
# HCC1937 = assay: cells; format: functional, cell-based, Homo sapiens; conditions: Homo sapiens, HCC1937;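 further: growth inhibition measured with a cell viability read-out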
# Description: SANGER: Inhibition of human HCC1937 cell growth in a cell viability assay.
# BL-41 = assay: cells; format: functional, cell-based, Homo sapiens; conditions: Homo sapiens, BL-41;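 further: growth inhibition of human BL-41 cells, read out with a cell viability assay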
# Description: SANGER: Inhibition of human BL-41 cell growth in a cell viability assay.
# BL-70 = assay: SANGER: Inhibition of human BL-70 cell growth in a cell viability assay.; format: functional, cell-based; conditions: Homo sapiens, BL-70
# H4 = assay: cells; format: functional, cell-based, Homo sapiens; conditions: Homo sapiens, H4
# Description: SANGER: Inhibition of human H4 cell growth in a cell viability assay.
# SKG-IIIa = assay: cells; format: functional, cell-based, Homo sapiens; conditions: Homo sapiens, SKG-IIIa;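 further: cell growth inhibition, read out with a cell viability assay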
# Description: SANGER: Inhibition of human SKG-IIIa cell growth in a cell viability assay.
# ME-180 = assay: cells; format: functional, cell-based, Homo sapiens; conditions: Homo sapiens, ME-180;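 further: cell viability assay measuring growth inhibition of ME-180 cells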
# Description: SANGER: Inhibition of human ME-180 cell growth in a cell viability assay.
# A673 = assay: cells; format: functional, cell-based, Homo sapiens; conditions: Homo sapiens, A673;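 further: growth inhibition of human A673 cells, read out through a cell viability assay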
# Description: SANGER: Inhibition of human A673 cell growth in a cell viability assay.
# HuO-3N1 = assay: cells; format: functional, cell-based, Homo sapiens; conditions: Homo sapiens, HuO-3N1;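 further: cell viability readout used to measure how strongly compounds suppress proliferation of human HuO-3N1 cells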
# Description: SANGER: Inhibition of human HuO-3N1 cell growth in a cell viability assay.
# SW780 = assay: cells; format: functional, cell-based, Homo sapiens; conditions: Homo sapiens, SW780;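 further: growth inhibition of the cells, read out with a cell viability assay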
# Description: SANGER: Inhibition of human SW780 cell growth in a cell viability assay.
# DG-75 = assay: cells; format: functional, cell-based, Homo sapiens; conditions: Homo sapiens, DG-75;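 further: growth inhibition of DG-75 cells, read out with a cell viability assay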
# Description: SANGER: Inhibition of human DG-75 cell growth in a cell viability assay.
# IST-SL2 = assay: cells; format: functional, cell-based, Homo sapiens; conditions: Homo sapiens, IST-SL2;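 further: growth inhibition of human IST-SL2 cells, read out by a cell viability assay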
# Description: SANGER: Inhibition of human IST-SL2 cell growth in a cell viability assay.
# BCPAP = assay: cells; format: functional, cell-based, Homo sapiens; conditions: Homo sapiens, BCPAP;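 further: growth inhibition of BCPAP cells, read out in a cell viability assay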
# Description: SANGER: Inhibition of human BCPAP cell growth in a cell viability assay.
# PA-1 = assay: cells; format: functional, cell-based, Homo sapiens; conditions: Homo sapiens, PA-1;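 further: IC50 for suppression of PA-1 cell proliferation, determined with a cell viability read-out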
# Description: SANGER: Inhibition of human PA-1 cell growth in a cell viability assay.
# NCI-H1993 = assay: cells; format: functional, cell-based, Homo sapiens; conditions: Homo sapiens, NCI-H1993;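 further: growth inhibition of the cancer cell line, assessed with a cell viability assay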
# Description: SANGER: Inhibition of human NCI-H1993 cell growth in a cell viability assay.
# GDM-1 = assay: cells; format: functional, cell-based, Homo sapiens; conditions: Homo sapiens, GDM-1;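 further: cell viability readout used to measure growth inhibition of human GDM-1 cells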
# Description: SANGER: Inhibition of human GDM-1 cell growth in a cell viability assay.
# SCC-3 = assay: cells; format: functional, cell-based, Homo sapiens; conditions: Homo sapiens, SCC-3;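 further: cell viability assay measuring inhibition of SCC-3 cell growth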
# Description: SANGER: Inhibition of human SCC-3 cell growth in a cell viability assay.
# RMG-I = assay: cells; format: functional, cell-based, Homo sapiens; conditions: Homo sapiens, RMG-I;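 further: growth inhibition of human RMG-I cells, read out with a cell viability assay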
# Description: SANGER: Inhibition of human RMG-I cell growth in a cell viability assay.
# RPMI-2650 = assay: cells; format: functional, cell-based, Homo sapiens; conditions: Homo sapiens, RPMI-2650
# Description: SANGER: Inhibition of human RPMI-2650 cell growth in a cell viability assay.
# YKG-1 = assay: cells; format: functional, cell-based, Homo sapiens; conditions: Homo sapiens, YKG-1;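 further: cell growth inhibition, read out with a viability assay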
# Description: SANGER: Inhibition of human YKG-1 cell growth in a cell viability assay.
# A-427 = assay: cells; format: functional, cell-based, Homo sapiens; conditions: Homo sapiens, A-427;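 further: growth inhibition of human A-427 cells, read out by a cell viability assay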
# Description: SANGER: Inhibition of human A427 cell growth in a cell viability assay.
# MG-63 = assay: cells; format: functional, cell-based, Homo sapiens; conditions: Homo sapiens, MG-63;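 further: growth inhibition of human MG-63 cells, read out with a cell viability assay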
# Description: SANGER: Inhibition of human MG-63 cell growth in a cell viability assay.
# OAW-42 = assay: cells; format: functional, cell-based, Homo sapiens; conditions: Homo sapiens, OAW-42;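 further: growth inhibition of OAW-42 cells, read out with a cell viability assay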
# Description: SANGER: Inhibition of human OAW-42 cell growth in a cell viability assay.
# KYSE-270 = assay: cells; format: functional, cell-based, Homo sapiens; conditions: Homo sapiens, KYSE-270;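 further: cell growth inhibition measured with a viability assay in the human KYSE-270 line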
# Description: SANGER: Inhibition of human KYSE-270 cell growth in a cell viability assay.
# UACC-812 = assay: cells; format: functional, cell-based, Homo sapiens; conditions: Homo sapiens, UACC-812
# Description: SANGER: Inhibition of human UACC-812 cell growth in a cell viability assay.
smiles,measurement,setting,value
COc1cccc2c1C(=O)c1c(O)c3c(c(O)c1C2=O)C[C@@](O)(C(=O)CO)C[C@@H]3O[C@H]1C[C@H](N)[C@H](O)[C@H](C)O1 [DOXORUBICIN],IC50,BT-20,> 1020 nM
same,IC50,D-542MG,> 1020 nM
same,IC50,HTC-C3,704 nM
same,IC50,RT-112,32.9 nM
same,IC50,NCI-H719,39.7 nM
same,IC50,Daudi,69 nM
same,IC50,NCI-H748,147 nM
same,IC50,SiHa,> 1020 nM
same,IC50,NCI-H1437,64.6 nM
same,IC50,MC-CAR,48.7 nM
same,IC50,KP-4,40.8 nM
same,IC50,FTC-133,229 nM
same,IC50,NY,228 nM
same,IC50,OE33,426 nM
same,IC50,TUR,76.3 nM
same,IC50,CAL-120,778 nM
same,IC50,VM-CUB-1,75.4 nM
same,IC50,TCC-SUP,> 1020 nM
same,IC50,KU-19-19,> 1020 nM
same,IC50,KYSE-70 cell line,225 nM
same,IC50,A 172,80.5 nM
same,IC50,RO82-W-1,> 1020 nM
same,IC50,SBC-5,20.7 nM
same,IC50,HCC1937,116 nM
same,IC50,BL-41,122 nM
same,IC50,BL-70,342 nM
same,IC50,H4,71.6 nM
same,IC50,SKG-IIIa,311 nM
same,IC50,ME-180,186 nM
same,IC50,A673,216 nM
same,IC50,HuO-3N1,> 1020 nM
same,IC50,SW780,> 1020 nM
same,IC50,DG-75,666 nM
same,IC50,IST-SL2,73.8 nM
same,IC50,BCPAP,52.5 nM
same,IC50,PA-1,44.5 nM
same,IC50,NCI-H1993,1000 nM
same,IC50,GDM-1,160 nM
same,IC50,SCC-3,67.3 nM
same,IC50,RMG-I,514 nM
same,IC50,RPMI-2650,13.7 nM
same,IC50,YKG-1,18.8 nM
same,IC50,A-427,11.8 nM
same,IC50,MG-63,22.1 nM
same,IC50,OAW-42,154 nM
same,IC50,KYSE-270,7.21 nM
same,IC50,UACC-812,> 1020 nM
O=C(O)c1ccc(-c2c[nH]c3ncc(-c4ccccc4)cc23)cc1C1CCCC1 [GSK-650394],IC50,BT-20,> 16000 nM
same,IC50,D-542MG,> 16000 nM
same,IC50,HTC-C3,10700 nM
same,IC50,RT-112,1030 nM
same,IC50,NCI-H719,> 16000 nM
same,IC50,Daudi,> 16000 nM
same,IC50,NCI-H748,> 16000 nM
same,IC50,SiHa,> 16000 nM
same,IC50,NCI-H1437,6130 nM
same,IC50,MC-CAR,> 16000 nM
same,IC50,KP-4,5190 nM
same,IC50,FTC-133,> 16000 nM
same,IC50,NY,> 16000 nM
same,IC50,OE33,4970 nM
same,IC50,TUR,4670 nM
same,IC50,CAL-120,> 16000 nM
same,IC50,VM-CUB-1,> 16000 nM
same,IC50,TCC-SUP,> 16000 nM
same,IC50,KU-19-19,> 16000 nM
same,IC50,KYSE-70 cell line,> 16000 nM
same,IC50,A 172,> 16000 nM
same,IC50,RO82-W-1,> 16000 nM
same,IC50,SBC-5,14900 nM
same,IC50,HCC1937,> 16000 nM
same,IC50,BL-41,> 16000 nM
same,IC50,BL-70,> 16000 nM
same,IC50,H4,> 16000 nM
same,IC50,SKG-IIIa,> 16000 nM
same,IC50,ME-180,> 16000 nM
same,IC50,A673,> 16000 nM
same,IC50,HuO-3N1,> 16000 nM
same,IC50,SW780,> 16000 nM
same,IC50,DG-75,> 16000 nM
same,IC50,IST-SL2,4830 nM
same,IC50,BCPAP,13000 nM
same,IC50,PA-1,3330 nM
same,IC50,NCI-H1993,> 16000 nM
same,IC50,GDM-1,879 nM
same,IC50,SCC-3,> 16000 nM
same,IC50,RMG-I,> 16000 nM
same,IC50,RPMI-2650,> 16000 nM
same,IC50,YKG-1,7390 nM
same,IC50,A-427,1880 nM
same,IC50,MG-63,> 16000 nM
same,IC50,OAW-42,> 16000 nM
same,IC50,KYSE-270,2410 nM
same,IC50,UACC-812,> 16000 nM
COC1=CC(c2cc3ccccc3[nH]2)=N/C1=C\c1[nH]c(C)cc1C [OBATOCLAX MESYLATE],IC50,BT-20,4490 nM
same,IC50,D-542MG,170 nM
same,IC50,HTC-C3,104 nM
same,IC50,RT-112,666 nM
same,IC50,NCI-H719,4150 nM
same,IC50,Daudi,70.8 nM
same,IC50,NCI-H748,10600 nM
same,IC50,SiHa,3120 nM
same,IC50,NCI-H1437,408 nM
same,IC50,MC-CAR,23.6 nM
same,IC50,KP-4,696 nM
same,IC50,FTC-133,3650 nM
same,IC50,NY,118 nM
same,IC50,OE33,251 nM
same,IC50,TUR,1160 nM
same,IC50,CAL-120,296 nM
same,IC50,VM-CUB-1,713 nM
same,IC50,TCC-SUP,1250 nM
same,IC50,KU-19-19,646 nM
same,IC50,KYSE-70 cell line,69.5 nM
same,IC50,A 172,887 nM
same,IC50,RO82-W-1,2410 nM
same,IC50,SBC-5,212 nM
same,IC50,HCC1937,464 nM
same,IC50,BL-41,62.2 nM
same,IC50,BL-70,63 nM
same,IC50,H4,1150 nM
same,IC50,SKG-IIIa,4680 nM
same,IC50,ME-180,1440 nM
same,IC50,A673,752 nM
same,IC50,HuO-3N1,401 nM
same,IC50,SW780,1090 nM
same,IC50,DG-75,6890 nM
same,IC50,IST-SL2,94.7 nM
same,IC50,BCPAP,58.9 nM
same,IC50,PA-1,87.7 nM
same,IC50,NCI-H1993,> 16000 nM
same,IC50,GDM-1,685 nM
same,IC50,SCC-3,446 nM
same,IC50,RMG-I,782 nM
same,IC50,RPMI-2650,23 nM
same,IC50,YKG-1,163 nM
same,IC50,A-427,85.1 nM
same,IC50,MG-63,214 nM
same,IC50,OAW-42,215 nM
same,IC50,KYSE-270,29.8 nM
same,IC50,UACC-812,11700 nM
